# From ChEMBL document CHEMBL4257509, “Effect of isouronium/guanidinium substitution on the efficacy of a series of novel anti-cancer agents” (Medchemcomm, 2018)
# Activity calls are given as the source filed them. The calls are words filed in the database; no cut-off is given here.
# Columns and labels:
# HeLa = assay: Cytotoxicity against human HeLa cells after 72 hrs by alamar blue assay; type: functional, cell-based
# MCF7 [1] = assay: Cytotoxicity against human MCF7 cells after 72 hrs by alamar blue assay; type: functional, cell-based; settings: MCF7, 72 h
# HL-60 [2] = assay: Cytotoxicity against human HL60 cells after 72 hrs by alamar blue assay; type: functional, cell-based; settings: HL-60, 72 h
# Homo sapiens = organism: Homo sapiens; assay: Inhibition of ERK phosphorylation in human HL60 cells at 10 uM after 16 hrs by Western blot analysis; type: cell-based
# MCF7 [3] = assay: Effect on total ERK expression in human MCF7 cells after 16 hrs by Western blot analysis; type: cell-based; settings: mcf7, 16 h
# MCF7 [4] = assay: Inhibition of ERK phosphorylation in human MCF7 cells at 10 uM after 16 hrs by Western blot analysis; type: cell-based
# HL-60 [5] = assay: Effect on total ERK expression in human HL60 cells after 16 hrs by Western blot analysis; type: cell-based; settings: hl-60, 16 h
smiles,measurement,setting,value
N=C(N)Nc1ccc(Oc2cccc(NC(=O)c3ccc(Cl)c(C(F)(F)F)c3)c2)cc1,IC50,HeLa,11.3 µM
same,IC50,MCF7 [1],20.8 µM
same,IC50,HL-60 [2],28.2 µM
CNC(=O)c1cc(Oc2ccc(NC(=O)Nc3ccc(Cl)c(C(F)(F)F)c3)cc2)ccn1 [SORAFENIB],inhibition,Homo sapiens,Active
same,IC50,HeLa,4.59 µM
same,Activity,MCF7 [3],Non-Toxic
same,IC50,MCF7 [1],3.07 µM
same,inhibition,MCF7 [4],Active
same,IC50,HL-60 [2],2.59 µM
same,Activity,HL-60 [5],Non-Toxic
Cl.Cl.N=C(N)Nc1ccc(Oc2cccc(NC(=N)Nc3ccc(Cl)c(C(F)(F)F)c3)c2)cc1,inhibition,Homo sapiens,inactive
same,IC50,HeLa,9.48 µM
same,Activity,MCF7 [3],Non-Toxic
same,IC50,MCF7 [1],9.84 µM
same,inhibition,MCF7 [4],Active
same,Activity,HL-60 [5],Non-Toxic
N=C(N)Oc1ccc(Oc2cccc(NC(=O)c3ccc(Cl)c(C(F)(F)F)c3)c2)cc1,IC50,HeLa,83.6 µM
same,IC50,MCF7 [1],28.7 µM
same,IC50,HL-60 [2],35.6 µM
Cl.Cl.N=C(Nc1cccc(Oc2ccc(OC(=N)N)cc2)c1)Nc1ccc(Cl)c(C(F)(F)F)c1,inhibition,Homo sapiens,Active
same,IC50,HeLa,3.35 µM
same,Activity,MCF7 [3],Non-Toxic
same,IC50,MCF7 [1],4.68 µM
same,inhibition,MCF7 [4],Active
same,IC50,HL-60 [2],5.49 µM
same,Activity,HL-60 [5],Non-Toxic
